# System: ZIKV
# Test: microbe, parasite or virus in culture
# Format: cell-based, Zika virus
# Settings: 48 hrs
row,Compound,EC50
1,"methyl ((S)-1-((2S,5S)-2-(5-(2-((2S,5S)-1-(O-(tert-butyl)-N-(methoxycarbonyl)-L-threonyl)-5-methylpyrrolidin-2-yl)-1,11-dihydroisochromeno[4′,3′:6,7]naphtho[1,2-d]imidazol-9-yl)-4-chloro-1H-imidazol-2-yl)-5-methylpyrrolidin-1-yl)-3-methyl-1-oxobutan-2-yl)carbamate [Compound 1]",0.0249 µM
2,"CC[C@H](C)[C@H](NC(=O)OC)C(=O)N1[C@H](c2nc(Cl)c(-c3ccc4c(c3)COc3cc5c(ccc6nc([C@@H]7C[C@@H]8CCC[C@@H]8N7C(=O)[C@@H](NC(=O)OC)[C@@H](C)CC)[nH]c65)cc3-4)[nH]2)C[C@@H]2CCC[C@@H]21 [Compound 35, methyl ((2S,3S)-1-((2S,3aS,6aS)-2-(4-chloro-5-(2-((2S,3aS,6aS)-1-((methoxycarbonyl)-L-isoleucyl)octahydrocyclopenta[b]pyrrol-2-yl)-1,11-dihydroisochromeno[4′,3′:6,7]naphtho[1,2-d]imidazol-9-yl)-1H-imidazol-2-yl)hexahydrocyclopenta[b]pyrrol-l(2H)-yl)-3-methyl-1-oxopentan-2-yl)carbamate]",0.0209 µM
3,"COC(=O)N[C@H](C(=O)N1[C@H](c2nc(Cl)c(-c3ccc4c(c3)COc3cc5c(ccc6nc([C@@H]7C[C@@H]8CCC[C@@H]8N7C(=O)[C@@H](NC(=O)OC)C(C)C)[nH]c65)cc3-4)[nH]2)C[C@@H]2CCC[C@@H]21)C(C)C [Compound 34, methyl ((S)-1-((2S,3aS,6aS)-2-(4-chloro-5-(2-((2S,3aS,6aS)-1-((methoxycarbonyl)-L-valyl)octahydrocyclopenta[b]pyrrol-2-yl)-1,11-dihydroisochromeno[4′,3′:6,7]naphtho[1,2-d]imidazol-9-yl)-1H-imidazol-2-yl)hexahydrocyclopenta[b]pyrrol-l(2H)-yl)-3-methyl-1-oxobutan-2-yl)carbamate]",0.0306 µM
4,"methyl ((2S,3S)-1-((S)-6-(4-chloro-5-(2-((S)-5-((methoxycarbonyl)-L-isoleucyl)-5-azaspiro[2.4]heptan-6-yl)-1-dihydroisochromeno[4′,3′:6,7]naphtho[1,2-d]imidazol-9-yl)-1H-imidazol-2-yl)-5-azaspiro[2.4]heptan-5-yl)-3-methyl-1-oxopentan-2-yl)carbamate [Compound 3]",0.0186 µM
5,"COC(=O)N[C@H](C(=O)N1[C@H](c2nc(Cl)c(-c3ccc4c(c3)COc3cc5c(ccc6nc([C@@H]7C[C@@H]8CCC[C@@H]8N7C(=O)[C@@H](NC(=O)OC)C7C[C@@H](C)O[C@H](C)C7)[nH]c65)cc3-4)[nH]2)C[C@@H]2CCC[C@@H]21)C1C[C@@H](C)O[C@H](C)C1 (stereo partly drawn) [Compound 36, methyl ((S)-2-((2S,3aS,6aS)-2-(4-chloro-5-(2-((2S,3aS,6aS)-1-((S)-2-((2R,6R)-2,6-dimethyltetrahydro-2H-pyran-4-yl)-2-((methoxycarbonyl)amino)acetyl)octahydrocyclopenta[b]pyrrol-2-yl)-1,11-dihydroisochromeno[4′,3′:6,7]naphtho[1,2-d]imidazol-9-yl)-1H-imidazol-2-yl)hexahydrocyclopenta[b]pyrrol-l(2H)-yl)-1-((2R,6R)-2,6-dimethyltetrahydro-2H-pyran-4-yl)-2-oxoethyl)carbamate]",0.0469 µM

# Same assay, conditions: Zika virus, Huh-7; 48 hrs
row,Compound,EC50
1,"CC[C@H](C)[C@H](NC(=O)OC)C(=O)N1C[C@@H](COC)C[C@H]1c1nc(Br)c(-c2ccc3c(c2)COc2cc4c(ccc5nc([C@@H]6CC[C@H](C)N6C(=O)[C@@H](NC(=O)OC)C(C)C)[nH]c54)cc2-3)[nH]1 [Compound 17, methyl ((S)-1-((2S,5S)-2-(9-(4-bromo-2-((2S,4S)-1-((methoxycarbonyl)-L-isoleucyl)-4-(methoxymethyl)pyrrolidin-2-yl)-1H-imidazol-5-yl)-1,11-dihydroisochromeno[4′,3′:6,7]naphtho[1,2-d]imidazol-2-yl)-5-methylpyrrolidin-1-yl)-3-methyl-1-oxobutan-2-yl)carbamate]",0.0156 µM
2,"CC[C@H](C)[C@H](NC(=O)OC)C(=O)N1[C@@H](C)CC[C@H]1c1nc(Cl)c(-c2ccc3c(c2)COc2cc4c(ccc5nc([C@@H]6CC[C@H](C)N6C(=O)[C@@H](NC(=O)OC)C6CCOCC6)[nH]c54)cc2-3)[nH]1 [Compound 15, methyl ((S)-2-((2S,5S)-2-(9-(4-chloro-2-((2S,5S)-1-((methoxycarbonyl)-L-isoleucyl)-5-methylpyrrolidin-2-yl)-1H-imidazol-5-yl)-1,11-dihydroisochromeno[4′,3′:6,7]naphtho[1,2-d]imidazol-2-yl)-5-methylpyrrolidin-1-yl)-2-oxo-1-(tetrahydro-2H-pyran-4-yl)ethyl)carbamate]",0.0077 µM
3,"CC[C@H](C)[C@H](NC(=O)OC)C(=O)N1[C@@H](C)CC[C@H]1c1nc(C(C)C)c(-c2ccc3c(c2)COc2cc4c(ccc5nc([C@@H]6CC[C@H](C)N6C(=O)[C@@H](NC(=O)OC)[C@@H](C)CC)[nH]c54)cc2-3)[nH]1 [Compound 44, methyl ((2S,3S)-1-((2S,5S)-2-(4-isopropyl-5-(2-((2S,5S)-1-((methoxycarbonyl)-L-isoleucyl)-5-methylpyrrolidin-2-yl)-1,11-dihydroisochromeno[4′,3′:6,7]naphtho[1,2-d]imidazol-9-yl)-1H-imidazol-2-yl)-5-methylpyrrolidin-1-yl)-3-methyl-1-oxopentan-2-yl)carbamate]",0.0115 µM
4,"COC(=O)N[C@H](C(=O)N1[C@@H](C)CC[C@H]1c1nc(Cl)c(-c2ccc3c(c2)COc2cc4c(ccc5nc([C@@H]6CC[C@H](C)N6C(=O)[C@@H](NC(=O)OC)C(C)(C)C(F)(F)F)[nH]c54)cc2-3)[nH]1)C(C)(C)C(F)(F)F [Compound 24, methyl ((S)-1-((2S,5S)-2-(4-chloro-5-(2-((2S,5S)-5-methyl-1-((S)-4,4,4-trifluoro-2-((methoxycarbonyl)amino)-3,3-dimethylbutanoyl)pyrrolidin-2-yl)-1,11-dihydroisochromeno[4′,3′:6,7]naphtho[1,2-d]imidazol-9-yl)-1H-imidazol-2-yl)-5-methylpyrrolidin-1-yl)-4,4,4-trifluoro-3,3-dimethyl-1-oxobutan-2-yl)carbamate]",0.0042 µM
5,"CC[C@H](C)[C@H](NC(=O)OC)C(=O)N1C[C@@H](COC)C[C@H]1c1nc(C2CC2)c(-c2ccc3c(c2)COc2cc4c(ccc5nc([C@@H]6CC[C@H](C)N6C(=O)[C@@H](NC(=O)OC)C(C)C)[nH]c54)cc2-3)[nH]1 [Compound 18, methyl ((S)-1-((2S,5S)-2-(9-(4-cyclopropyl-2-((2S,4S)-1-((methoxycarbonyl)-L-isoleucyl)-4-(methoxymethyl)pyrrolidin-2-yl)-1H-imidazol-5-yl)-1,11-dihydroisochromeno[4′,3′:6,7]naphtho[1,2-d]imidazol-2-yl)-5-methylpyrrolidin-1-yl)-3-methyl-1-oxobutan-2-yl)carbamate]",0.0077 µM
6,"COC[C@H]1C[C@@H](c2nc(Cl)c(-c3ccc4c(c3)COc3cc5c(ccc6nc([C@@H]7CC[C@H](C)N7C(=O)[C@@H](NC(=O)OC)C(C)C)[nH]c65)cc3-4)[nH]2)N(C(=O)[C@@H](NC(=O)OC)[C@@H](C)OC)C1 [Compound 5, methyl ((S)-1-((2S,5S)-2-(9-(4-chloro-2-((2S,4S)-1-(N-(methoxycarbonyl)-O-methyl-L-threonyl)-4-(methoxymethyl)pyrrolidin-2-yl)-1H-imidazol-5-yl)-1,11-dihydroisochromeno[4′,3′:6,7]naphtho[1,2-d]imidazol-2-yl)-5-methylpyrrolidin-1-yl)-3-methyl-1-oxobutan-2-yl)carbamate]",0.124 µM
7,"CC[C@@H](C)[C@H](NC(=O)OC)C(=O)N1[C@@H](C)CC[C@H]1c1nc(C2CC2)c(-c2ccc3c(c2)COc2cc4c(ccc5nc([C@@H]6CC[C@H](C)N6C(=O)[C@@H](NC(=O)OC)[C@H](C)CC)[nH]c54)cc2-3)[nH]1 [Compound 40, methyl ((2S,3R)-1-((2S,5S)-2-(4-cyclopropyl-5-(2-((2S,5S)-1-((methoxycarbonyl)-L-alloisoleucyl)-5-methylpyrrolidin-2-yl)-1,11-dihydroisochromeno[4′,3′:6,7]naphtho[1,2-d]imidazol-9-yl)-1H-imidazol-2-yl)-5-methylpyrrolidin-1-yl)-3-methyl-1-oxopentan-2-yl)carbamate]",0.0251 µM
8,"COC(=O)N[C@H](C(=O)N1[C@@H](C)CC[C@H]1c1nc(C2CC2)c(-c2ccc3c(c2)COc2cc4c(ccc5nc([C@@H]6CC[C@H](C)N6C(=O)[C@@H](NC(=O)OC)C(C)(C)CF)[nH]c54)cc2-3)[nH]1)C(C)(C)CF [Compound 42, methyl ((S)-1-((2S,5S)-2-(4-cyclopropyl-5-(2-((2S,5S)-1-((S)-4-fluoro-2-((methoxycarbonyl)amino)-3,3-dimethylbutanoyl)-5-methylpyrrolidin-2-yl)-1,11-dihydroisochromeno[4′,3′:6,7]naphtho[1,2-d]imidazol-9-yl)-1H-imidazol-2-yl)-5-methylpyrrolidin-1-yl)-4-fluoro-3,3-dimethyl-1-oxobutan-2-yl)carbamate]",0.0214 µM
9,"COC(=O)N[C@H](C(=O)N1CC2(CC2)C[C@H]1c1nc(Cl)c(-c2ccc3c(c2)COc2cc4c(ccc5nc([C@@H]6CC7(CC7)CN6C(=O)[C@@H](NC(=O)OC)C(C)C)[nH]c54)cc2-3)[nH]1)C(C)C [Compound 2, methyl ((S)-1-((S)-6-(4-chloro-5-(2-((S)-5-((methoxycarbonyl)-L-valyl)-5-azaspiro[2.4]heptan-6-yl)-1,11-dihydroisochromeno[4′,3′:6,7]naphtho[1,2-d]imidazol-9-yl)-1H-imidazol-2-yl)-5-azaspiro[2.4]heptan-5-yl)-3-methyl-1-oxobutan-2-yl)carbamate]",0.0505 µM
10,"COC(=O)N[C@H](C(=O)N1[C@@H](C)CC[C@H]1c1nc(Cl)c(-c2ccc3c(c2)COc2cc4c(ccc5nc([C@@H]6CC[C@H](C)N6C(=O)[C@@H](NC(=O)OC)C(C)(C)C)[nH]c54)cc2-3)[nH]1)C(C)(C)C [Compound 23, methyl ((S)-1-((2S,5S)-2-(4-chloro-5-(2-((2S,5S)-1-((S)-2-((methoxycarbonyl)amino)-3,3-dimethylbutanoyl)-5-methylpyrrolidin-2-yl)-1,11-dihydroisochromeno[4′,3′:6,7]naphtho[1,2-d]imidazol-9-yl)-1H-imidazol-2-yl)-5-methylpyrrolidin-1-yl)-3,3-dimethyl-1-oxobutan-2-yl)carbamate]",0.0094 µM

# Source: patent US12037340B2, “Pentacyclic derivatives as Zika virus inhibitors” (Gilead Sciences, Inc., priority 2021, dated 2024)
